Laboratory results published in patent publication US12630512B2, “Agents for differentiating stem cells and treating cancer” (Minerva Biotechnologies Corporation, priority 2017, dated 2026).

Tests used:
[1] = test system: human primed state stem cells; assay: Stem cell drug screen on primed state stem cells (pluripotency, proliferation, differentiation); type: cell-based; conditions: for induction of differentiation / effect on growth of primed state stem cells: treated for 3 days, JQ1 at 500 nM or 1 uM (FIGS. 11-12)
Procedure: (§1) The stem cell screening assay, was performed in both the presence and absence of the stem cell growth factors: NME7AB for growing naïve stem cells or FGF for growing primed stem cells. If the cognate growth factor was present, then the biological or small molecule would have to compete away the growth factor to get an effect. Therefore, we expected to see more of an effect when the growth factor, FGF for primed stem cells or NME7AB or NME1 dimers for naïve stem cells, was absent. The effect of the compounds on stem cells was visually determined and compounds were ranked 0-4, with 4 being the greatest effect and 0 being no observable effect. The major effect that was observed was a change from pluripotent stem cell morphology, which is a cobblestone pattern of small round cells with a large nucleus to cytoplasm ratio, to that of differentiating stem cells, which are elongated, large and flattened cells with a smaller nucleus to cytoplasm ratio. […] The compounds were added to a final concentration of 6 uM to either naïve state stem cells or primed state stem cells. In this particular case, the naïve state stem cells were maintained in a naïve state by culturing in a media containing NME7AB or NME1 dimers. However, other methods such as 2i and 5i (Silva et al., 2008, Nichols and Smith, 2009, Theunissen et al., 2014)] can be used to maintain stem cells in a more naïve state. In this case primed state stem cells were cultured in bFGF over a layer of MEFs, although it is known that any bFGF containing media will maintain stem cells in the primed state.
(§2) Percent inhibition of cancer cell migration was performed in a wound healing assay. The percent area that the invading cancer cells occupied, in the presence of a drug candidate compared to the controls, was quantified by Image J cell software which enables cell counting from photographs. IC50's were calculated by performing migration experiments at several compound concentrations and then applying Hill's equation. Inhibition of cancer cell proliferation was quantified by automated cell counting in the presence or absence of a drug candidate. Here, the inhibition of cancer cell proliferation was scored 1 if proliferation was inhibited by 25%, 2 if inhibited by […] and 4 for the highest degree of inhibition of proliferation, and 0 for the lowest. The effect of the drug candidates on stem cell pluripotency or proliferation was scored by eye, based on cell morphology and cell density, with 0 being no change in morphology or cell number and 4 being the most profound effect, with the stem cells taking on the morphology of a differentiating cell, along with much fewer cells indicative of inhibition of proliferation. As an example, FIGS. 30A-30F show photographs of naïve stem cell, primed stem cell and fibroblast controls. FIGS. 31A-31F show the effect of compounds of the invention on naïve state stem cells, where the number of ‘+’ signs indicates the score from 0-4 of ability of compound to inhibit pluripotency, proliferation of naïve stem cells or ability to induce their differentiation. […] FIGS. 36-44 and 65-87 show photographs and IC50 graphs of the compounds of the invention, inhibiting cancer cell migration and invasion. Cancer cell migration is a hallmark of metastatic cancer.
Stem cells whether embryonic or induced pluripotent stem (iPS) cells were cultured in a minimal, serum-free media that contained human recombinant bFGF at a concentration of 8 ng/mL. The stem cells were plated over a layer of inactivated mouse embryonic fibroblasts, aka MEFs, which secrete additional uncharacterized growth factors and cytokines.
Human naïve state and primed stem cells were cultured in parallel for at least 5 passages to guarantee normal differentiation-free growth. The stem cells were plated in 12-well cell culture plates with 50,000 cells per well. Cells were cultured in their respective media, either bFGF media or NME7AB media for 24 hours. […]

human fibroblasts = assay: Effect on fibroblasts as surrogate for normal cells; type: cell-based; conditions: 500 nM final concentration (FIG. 24)
From the text: However, fibroblasts are more differentiated than stem cells but are able to self-replicate for defined periods of time. We tested selected compounds of the invention to determine if these compounds were just cytotoxic or if they selectively affected stem cells and, importantly, cancer cells, but not normal, healthy cells. Here, we used fibroblasts as a surrogate for normal cells. […] […] Each compound was scored for its effect on fibroblast proliferation where “+” indicates 25% inhibition of fibroblast growth, “++” 50% inhibition and “+++” 75% inhibition of growth.

[2] = test system: fibronectin, vimentin, NF1; assay: RT-PCR of markers of differentiation in naïve stem cells; type: cell-based, human
From the text: The genes whose expression increased as a result of treatment with the compounds of the invention, in a concentration dependent manner, are fibronectin and vimentin, which both increase as stem cells initiate differentiation and NF1, which is one of the first genes to increase when stem cells begin to differentiate down the neural lineage. […] Thus, compounds of the invention that induce markers of differentiation are useful for the treatment of cancers, because cancer cells, by definition, have de-differentiated, which allows them to continually self-replicate. […] Expression of metastatic marker E-cadherin was reduced and expression of differentiation markers fibronectin, vimentin and NF1 were increased.

[3] = test system: human naïve state stem cells; assay: Stem cell drug screen on naïve state stem cells (pluripotency, proliferation, differentiation); type: cell-based; conditions: JQ1 at 500 nM or 1 uM, naïve cells from NME7AB or NME1 dimers (FIGS. 13-16)
[4] = test system: human naïve state stem cells; assay: as above; type: cell-based; conditions: first panel (FIGS. 2, 7-10); small molecules 6 uM; 3 days; with or without NME7AB
Procedure: as §1, §2
Stem cells whether embryonic or induced pluripotent stem (iPS) cells were cultured in a minimal, serum-free media that contained human recombinant NME7AB at a concentration of 2-32 nM wherein 4-8 nM is preferred and 4 nM is more preferred. To facilitate surface attachment, cell culture plates were coated with an anti-MUC1* monoclonal antibody called MN-C3 or C3 or MN-C8 at a concentration of 2-100 μg/mL coating solution, wherein 3-50 ug/mL is preferred and 6-12.5 ug/mL is more preferred. In these experiments, 12.5 ug/mL of MN-C3 was used. Antibody coated plates were incubated at 4 degrees C. overnight prior to plating stem cells. A Rho kinase I inhibitor was added to enhance surface attachment. […]

cancer cells [5] = conditions: in vitro; stated as previously shown; cited from earlier work
cancer cells [6] = conditions: NME7AB-driven transformation; stated as previously shown; cited from earlier work

Cc1sc2c(c1C)C(c1ccc(Cl)cc1)=N[C@@H](CC(=O)OC(C)(C)C)c1nnc(C)n1-2 [JQ1(+), reference compound]
effect on the size of primed stem cell colonies ([1]; treated for 3 days (FIG. 11)): modest effect | induction of differentiation / effect on growth of primed state stem cells [1]: None of these agents appeared to induce differentiation | induction of differentiation / effect on growth of primed state stem cells ([1]; listed as JQI): not primed stem cell growth | effect on human fibroblasts (human fibroblasts): same effect on fibroblasts as it does on primed state stem cells | up-regulation of markers of differentiation in stem cells [2]: did not cause up-regulation of markers of differentiation | effect on naïve state stem cell differentiation and growth [3]: dramatically induced differentiation of naïve state stem cells and inhibited their growth | effect on naïve state stem cell differentiation and growth ([3]; listed as JQI): inhibitory effect

COC(=O)c1ccc(C2c3[nH]c4ccccc4c3CCN2C(=O)c2cccc(Cl)c2)cc1 (centres unmarked) [MN0642]
induced differentiation / inhibited pluripotency and growth of naïve state stem cells [4]: induced differentiation | inhibition of cancer cell growth (cancer cells [5]): inhibit the growth of cancer cells in vitro

CCCCNC(=O)N1CCc2c([nH]c3ccccc23)C1C(C)c1ccccc1 (centres unmarked) [MN1130]
induced differentiation / inhibited pluripotency and growth of naïve state stem cells [4]: induced differentiation | effect on primed stem cells ([1]; first panel (FIGS. 2-6), small molecules 6 uM, 3 days, with or without FGF): modest effect

Cc1[nH]c(/C=C2\C(=O)Nc3ccc(S(=O)(=O)N(C)c4cccc(Cl)c4)cc32)c(C)c1C(=O)N1CCN(C)CC1 [SU11274]
up-regulation of markers of differentiation in stem cells [2]: did not cause up-regulation of markers of differentiation

FLR peptide: synthetic peptide corresponding to the extracellular domain of MUC1*, FLR also known as PSMGFR (SEQ ID NO:3) (GTINVHDVETQFNQYKTEAASRYNLTISDVSVSDVPFPFSAQSGA; the extracellular domain of Native Primary Sequence of the MUC1 Growth Factor Receptor (nat-PSMGFR - an example of "PSMGFR"))
induced differentiation / inhibited pluripotency and growth of naïve state stem cells [4]: induced differentiation | inhibition of the transition of regular cancer cells to metastatic cancer cells (cancer cells [6]): inhibit the transition
